Laboratory results published in patent publication US20100105111A1, “METHOD FOR PRODUCTION OF OPTICALLY ACTIVE AMINO ACID” (Mitsubishi Gas Chemical Company, Inc., priority 2007, published 2010).

Tests used:
[1] = biological target: T1, aminocaprolactam racemase derived from Achromobacter obae (Achromobacter obae, UniProt Q7M181); details: activity for 2-aminobutyric acid amide is 100; cited from earlier work
T1 sequence (Q7M181 1-436): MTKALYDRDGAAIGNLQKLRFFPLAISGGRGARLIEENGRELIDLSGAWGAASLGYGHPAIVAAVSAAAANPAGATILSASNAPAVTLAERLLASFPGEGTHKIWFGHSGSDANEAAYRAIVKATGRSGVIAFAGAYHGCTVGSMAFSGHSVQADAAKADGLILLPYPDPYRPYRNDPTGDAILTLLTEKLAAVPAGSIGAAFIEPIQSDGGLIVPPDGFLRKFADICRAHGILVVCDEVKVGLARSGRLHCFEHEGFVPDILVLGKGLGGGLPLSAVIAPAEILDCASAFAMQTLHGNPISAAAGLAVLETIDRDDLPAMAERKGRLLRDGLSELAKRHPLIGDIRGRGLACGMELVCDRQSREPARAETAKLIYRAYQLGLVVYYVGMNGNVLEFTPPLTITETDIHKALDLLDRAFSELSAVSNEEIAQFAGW

[2] = system: nitrile hydratase derived from Rhodococcus opacus 71D; assay: Substrate specificity of the purified enzyme from Rhodococcus opacus 71D (aminonitrile to amino acid amide, HPLC); details: for Relative activity for each substrate: enzymatic properties, activity for 2-aminobutyronitrile is 100; for Relative activity: 30° C., 0.1 M potassium phosphate buffer pH 7.0, activity for 2-aminobutyronitrile = 100
[3] = biological target: D-aminopeptidase derived from Ochrobactrum anthropi (Brucella anthropi, UniProt Q9ZBA9); details: activity for D-2-aminobutyric acid amide is 100; cited from earlier work
[4] = system: L-amino acid amidase derived from Brevundimonas diminuta; details: activity for L-2-aminobutyric acid amide is 100; cited from earlier work
[5] = system: enzyme selectively converting the L-amino acid amide into the L-amino acid, Xanthobacter flavus; details: activity for L-2-aminobutyric acid amide is 100; cited from earlier work

Chain of D-aminopeptidase derived from Ochrobactrum anthropi (Q9ZBA9 whole entry, looked up): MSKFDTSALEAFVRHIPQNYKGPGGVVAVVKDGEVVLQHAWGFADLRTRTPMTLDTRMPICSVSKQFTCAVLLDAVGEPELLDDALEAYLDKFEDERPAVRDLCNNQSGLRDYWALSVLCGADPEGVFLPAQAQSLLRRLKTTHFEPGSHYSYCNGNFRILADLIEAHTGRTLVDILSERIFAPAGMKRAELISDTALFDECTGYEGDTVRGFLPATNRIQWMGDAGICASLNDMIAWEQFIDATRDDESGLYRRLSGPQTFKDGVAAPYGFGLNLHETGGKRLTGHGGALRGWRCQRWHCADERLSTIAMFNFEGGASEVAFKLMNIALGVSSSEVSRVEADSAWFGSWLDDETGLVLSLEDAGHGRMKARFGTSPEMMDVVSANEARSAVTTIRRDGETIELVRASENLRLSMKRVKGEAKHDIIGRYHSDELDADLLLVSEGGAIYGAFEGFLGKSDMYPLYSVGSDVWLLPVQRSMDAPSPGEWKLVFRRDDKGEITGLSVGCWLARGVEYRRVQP

CCC(N)C(N)=O (stereo not drawn) [2-aminobutyric acid amide]
Relative activity for each substrate [1]: 100

CCC(N)C#N (stereo not drawn) [2-aminobutyronitrile]
Relative activity for each substrate [2]: 100 | Relative activity ([2]; substrate 20 mM): 100

CC(N)C#N (stereo not drawn) [Alaninonitrile]
Relative activity for each substrate [2]: 77 | Relative activity ([2]; substrate 20 mM): 77.0

CC[C@@H](N)C(N)=O [D-2-aminobutyric acid amide]
Relative activity for each substrate [3]: 100

C[C@@H](N)C(N)=O [D-alaninamide]
Relative activity for each substrate [3]: 333

CSCC[C@@H](N)C(N)=O [D-methioninamide]
Relative activity for each substrate [3]: 6.7

CCCC[C@@H](N)C(N)=O [D-norleuicinamide]
Relative activity for each substrate [3]: 2.7

CCC[C@@H](N)C(N)=O [D-norvalinamide]
Relative activity for each substrate [3]: 6

NC(=O)[C@H](N)c1ccccc1 [D-phenylglycinamide]
Relative activity for each substrate [3]: 2.3

NC(=O)[C@H](N)CO [D-serinamide]
Relative activity for each substrate [3]: 97

C[C@H](O)[C@@H](N)C(N)=O [D-threoninamide]
Relative activity for each substrate [3]: 30

CC[C@H](N)C(N)=O [L-2-aminobutyric acid amide]
Relative activity for each substrate [4]: 100 | Relative activity for each substrate [5]: 100

C[C@H](N)C(N)=O [L-alaninamide]
Relative activity for each substrate [1]: 78 | Relative activity for each substrate [4]: 3.4

CC[C@H](C)[C@H](N)C(N)=O [L-isoleuicinamide]
Relative activity for each substrate [4]: 30.2

CC(C)C[C@H](N)C(N)=O [L-leuicinamide]
Relative activity for each substrate [1]: 48 | Relative activity for each substrate [4]: 92.7

CSCC[C@H](N)C(N)=O [L-methioninamide]
Relative activity for each substrate [1]: 35 | Relative activity for each substrate [4]: 85.4

CCCC[C@H](N)C(N)=O [L-norleuicinamide]
Relative activity for each substrate [1]: 56

CCC[C@H](N)C(N)=O [L-norvalinamide]
Relative activity for each substrate [1]: 63

NC(=O)[C@@H](N)Cc1ccccc1 [L-phenylalaninamide]
Relative activity for each substrate [1]: 2 | Relative activity for each substrate [4]: 104 | Relative activity for each substrate [5]: 111

NC(=O)[C@@H](N)c1ccccc1 [L-phenylglycinamide]
Relative activity for each substrate [5]: 113

NC(=O)[C@@H](N)CO [L-serinamide]
Relative activity for each substrate [1]: 17 | Relative activity for each substrate [4]: 2.9

CC(C)(C)[C@H](N)C(N)=O [L-t-leuicinamide]
Relative activity for each substrate [4]: 0.2 | Relative activity for each substrate [5]: 8.4

C[C@@H](O)[C@H](N)C(N)=O [L-threoninamide]
Relative activity for each substrate [1]: 63 | Relative activity for each substrate [4]: 14.6

CC(C)[C@H](N)C(N)=O [L-valinamide]
Relative activity for each substrate [4]: 17.7 | Relative activity for each substrate [5]: 65

N#C[C@@H](N)Cc1ccccc1 [Phenylalaninonitrile]
Relative activity for each substrate [2]: 42.9 | Relative activity ([2]; substrate concentration 10 mM): 42.9

N#CC(N)c1ccccc1 (stereo not drawn) [Phenylglycinonitirle]
Relative activity for each substrate [2]: 177 | Relative activity ([2]; substrate 20 mM): 177

CC(C)[C@H](N)C#N [Valinonitrile]
Relative activity for each substrate [2]: 15.1 | Relative activity ([2]; substrate 20 mM): 15.1

CC(C)C[C@H](N)C#N [leucinonitrile]
Relative activity for each substrate [2]: 11.8

CC(C)(C)C(N)C#N (stereo not drawn) [t-leuicinonitrile]
Relative activity for each substrate [2]: 1.80 | Relative activity ([2]; substrate 20 mM): 1.8
